The assay deals with T1, human Fatty Acid Synthase (Homo sapiens, UniProt P49327).
T1 construct: made in house
Put plainly: Human FAS enzyme assay (decrease in NADPH fluorescence). In kind it is biochemical. The note with it: % inhibition at a concentration of 100 μmolar. Summed up:
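In-house human FAS was preincubated with compound and NADPH for 15 min at room temperature in 0.1 M Tris pH 7.5 with EDTA, glutathione and BSA. Malonyl CoA and acetyl CoA (500 μM and 150 μM in the added mix) were then added for 60 min. IC50 came from time-zero-subtracted NADPH fluorescence (340/460 nm).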

For orientation: inhibition means the relative decrease from the control value, in per cent.

T1 sequence (P49327 whole entry): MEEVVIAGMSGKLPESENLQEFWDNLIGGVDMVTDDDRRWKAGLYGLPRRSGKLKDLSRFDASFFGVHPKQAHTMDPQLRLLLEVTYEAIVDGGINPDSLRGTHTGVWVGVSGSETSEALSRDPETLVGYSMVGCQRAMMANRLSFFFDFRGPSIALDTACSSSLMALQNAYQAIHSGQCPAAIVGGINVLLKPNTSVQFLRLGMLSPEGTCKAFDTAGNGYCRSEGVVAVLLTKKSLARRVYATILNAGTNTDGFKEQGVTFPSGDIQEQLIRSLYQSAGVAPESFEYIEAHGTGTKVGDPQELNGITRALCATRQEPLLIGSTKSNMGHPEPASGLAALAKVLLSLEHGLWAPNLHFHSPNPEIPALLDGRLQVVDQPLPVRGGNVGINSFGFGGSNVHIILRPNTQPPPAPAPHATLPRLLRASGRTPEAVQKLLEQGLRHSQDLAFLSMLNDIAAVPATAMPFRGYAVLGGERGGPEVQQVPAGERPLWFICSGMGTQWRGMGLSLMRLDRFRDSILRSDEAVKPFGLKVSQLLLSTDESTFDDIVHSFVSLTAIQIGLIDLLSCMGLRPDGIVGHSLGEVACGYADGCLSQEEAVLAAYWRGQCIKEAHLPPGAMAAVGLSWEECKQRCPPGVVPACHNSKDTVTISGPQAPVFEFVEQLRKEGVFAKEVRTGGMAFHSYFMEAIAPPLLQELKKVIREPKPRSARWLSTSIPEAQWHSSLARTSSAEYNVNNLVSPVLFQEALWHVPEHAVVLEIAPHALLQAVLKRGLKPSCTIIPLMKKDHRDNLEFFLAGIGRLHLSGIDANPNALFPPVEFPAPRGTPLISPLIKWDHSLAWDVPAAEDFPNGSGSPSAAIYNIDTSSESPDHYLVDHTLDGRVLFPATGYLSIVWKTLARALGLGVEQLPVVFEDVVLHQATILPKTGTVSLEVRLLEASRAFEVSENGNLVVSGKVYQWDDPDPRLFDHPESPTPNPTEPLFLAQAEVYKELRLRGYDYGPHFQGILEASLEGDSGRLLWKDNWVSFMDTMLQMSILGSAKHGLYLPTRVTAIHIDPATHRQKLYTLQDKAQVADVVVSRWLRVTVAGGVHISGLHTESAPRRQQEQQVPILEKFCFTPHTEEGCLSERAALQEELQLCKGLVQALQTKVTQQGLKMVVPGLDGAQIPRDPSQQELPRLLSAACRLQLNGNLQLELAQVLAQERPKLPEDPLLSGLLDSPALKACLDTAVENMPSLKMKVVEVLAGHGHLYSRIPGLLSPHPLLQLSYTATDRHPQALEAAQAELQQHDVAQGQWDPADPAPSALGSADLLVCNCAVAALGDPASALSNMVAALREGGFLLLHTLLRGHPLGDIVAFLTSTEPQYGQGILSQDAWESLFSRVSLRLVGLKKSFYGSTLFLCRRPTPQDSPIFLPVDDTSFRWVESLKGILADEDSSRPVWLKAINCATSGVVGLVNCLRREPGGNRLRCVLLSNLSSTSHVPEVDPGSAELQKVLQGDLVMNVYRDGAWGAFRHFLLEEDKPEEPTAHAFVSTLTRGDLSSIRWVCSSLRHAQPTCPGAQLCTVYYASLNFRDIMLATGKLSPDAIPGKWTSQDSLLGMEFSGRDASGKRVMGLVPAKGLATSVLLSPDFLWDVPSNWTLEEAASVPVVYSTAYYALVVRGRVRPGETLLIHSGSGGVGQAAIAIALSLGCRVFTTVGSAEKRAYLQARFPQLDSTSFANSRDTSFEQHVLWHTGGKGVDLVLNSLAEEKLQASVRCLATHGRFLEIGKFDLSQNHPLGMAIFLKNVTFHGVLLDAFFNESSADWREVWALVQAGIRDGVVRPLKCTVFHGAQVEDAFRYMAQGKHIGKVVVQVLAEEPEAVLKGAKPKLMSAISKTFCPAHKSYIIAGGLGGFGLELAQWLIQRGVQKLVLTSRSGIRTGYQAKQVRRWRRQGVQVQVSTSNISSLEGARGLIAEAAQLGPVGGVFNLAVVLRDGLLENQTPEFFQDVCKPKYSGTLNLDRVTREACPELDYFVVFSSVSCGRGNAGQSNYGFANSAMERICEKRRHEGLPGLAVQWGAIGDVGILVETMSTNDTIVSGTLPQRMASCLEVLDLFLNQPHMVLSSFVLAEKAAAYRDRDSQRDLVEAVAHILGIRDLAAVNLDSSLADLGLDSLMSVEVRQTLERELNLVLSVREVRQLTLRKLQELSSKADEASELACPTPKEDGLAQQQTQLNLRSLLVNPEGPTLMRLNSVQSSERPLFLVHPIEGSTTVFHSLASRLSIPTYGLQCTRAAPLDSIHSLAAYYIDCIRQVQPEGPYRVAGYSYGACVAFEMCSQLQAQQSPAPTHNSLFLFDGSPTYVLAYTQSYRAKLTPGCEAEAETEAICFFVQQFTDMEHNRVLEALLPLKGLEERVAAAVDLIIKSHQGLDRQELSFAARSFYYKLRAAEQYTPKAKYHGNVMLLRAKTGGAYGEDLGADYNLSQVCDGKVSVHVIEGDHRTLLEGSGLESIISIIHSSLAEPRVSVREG

Consider `Cc1ccc(C(=O)N2CCC(c3ccc(C#N)cc3)CC2)cc1NC(=O)NCc1cccc(S(C)(=O)=O)c1` [Example 247, 1-[5-[4-(4-cyanophenyl)piperidine-1-carbonyl]-2-methyl-phenyl]-3-[(3-methylsulfonylphenyl)methyl]urea], for which the inhibition at 100 µM was 101%.
Regarding `Cc1ccc(C(=O)N2CCC(c3ccc(C#N)cc3)CC2)cc1NC(=O)NCc1nccs1` [Example 248, 1-[5-[4-(4-cyanophenyl)piperidine-1-carbonyl]-2-methyl-phenyl]-3-(1,3-thiazol-2-ylmethyl)urea], the inhibition at 100 µM was determined as 100%.
Turning to `Cc1cccc(CNC(=O)Nc2cc(C(=O)N3CCC(c4ccc(C#N)cc4)CC3)ccc2C)n1` [Example 249, 1-[5-[4-(4-cyanophenyl)piperidine-1-carbonyl]-2-methyl-phenyl]-3-[(6-methylpyridin-2-yl)methyl]urea], the inhibition at 100 µM turned out to be 84.2%.
For `Cc1ccc(C(=O)N2CCC(c3ccc(C#N)cc3)CC2)cc1NC(=O)NCc1ncccc1C` [Example 250, 3-[5-[4-(4-cyanophenyl)piperidine-1-carbonyl]-2-methyl-phenyl]-1-[(3-methylpyridin-2-yl)methyl]urea] the value was 104%; for `COc1ncccc1-c1cc(CNC(=O)Nc2cc(C(=O)N3CCC(c4ccc(C#N)cc4)CC3)ccc2C)on1` [Example 251, 1-[5-[4-(4-cyanophenyl)piperidine-1-carbonyl]-2-methyl-phenyl]-3-[[3-(2-methoxypyridin-3-yl)-1,2-oxazol-5-yl]methyl]urea], 88.4%.
With `COCCCCNC(=O)Nc1cc(C(=O)N2CCC(c3ccc(C#N)cc3)CC2)ccc1C` [Example 252, 1-[5-[4-(4-cyanophenyl)piperidine-1-carbonyl]-2-methyl-phenyl]-3-(4-methoxybutyl)urea], the inhibition at 100 µM turned out to be 99.4%.
As to `Cc1ccc(C(=O)N2CCC(c3ccc(C#N)cc3)CC2)cc1NC(=O)NCCN1CCC(F)(F)C1` [Example 254, 1-[5-[4-(4-cyanophenyl)piperidine-1-carbonyl]-2-methyl-phenyl]-3-[2-(3,3-difluoropyrrolidin-1-yl)ethyl]urea], the inhibition at 100 µM worked out at 104%.
For `Cc1ccc(C(=O)N2CCC(c3ccc(C#N)cc3)CC2)cc1NC(=O)NC1CCC(N(C)C)CC1` (centres unmarked) [Example 256, 1-[5-[4-(4-cyanophenyl)piperidine-1-carbonyl]-2-methyl-phenyl]-3-(4-dimethylaminocyclohexyl)urea] the value was 98.7%; for `Cc1ccc(C(=O)N2CCC(c3ccc(C#N)cc3)CC2)cc1NC(=O)NCc1cc(C)n(C)n1` [Example 257, 1-[5-[4-(4-cyanophenyl)piperidine-1-carbonyl]-2-methyl-phenyl]-3-[(1,5-dimethylpyrazol-3-yl)methyl]urea], 86.2%; for `Cc1ccc(C(=O)N2CCC(c3ccc(C#N)cc3)CC2)cc1NC(=O)NCc1cn(C)nc1C` [Example 258, 1-[5-[4-(4-cyanophenyl)piperidine-1-carbonyl]-2-methyl-phenyl]-3-[(1,3-dimethylpyrazol-4-yl)methyl]urea], 89%.
For the compound `Cc1ccc(C(=O)N2CCC(c3ccc(C#N)cc3)CC2)cc1NC(=O)NC(C)(C)CN` [Example 260, 3-(1-amino-2-methyl-propan-2-yl)-1-[5-[4-(4-cyanophenyl)piperidine-1-carbonyl]-2-methyl-phenyl]urea], the inhibition at 100 µM is 77.4%.
Take `CC(=O)NC(C)(C)CNC(=O)Nc1cc(C(=O)N2CCC(c3ccc(C#N)cc3)CC2)ccc1C` [Example 261, N-[1-[[5-[4-(4-cyanophenyl)piperidine-1-carbonyl]-2-methyl-phenyl]carbamoylamino]-2-methyl-propan-2-yl]acetamide]: the inhibition at 100 µM was 85.9%.
For `CCC(=O)NC(C)(C)CNC(=O)Nc1cc(C(=O)N2CCC(c3ccc(C#N)cc3)CC2)ccc1C` [Example 262, N-[1-[[5-[4-(4-cyanophenyl)piperidine-1-carbonyl]-2-methyl-phenyl]carbamoylamino]-2-methyl-propan-2-yl]propanamide] the value was 98.7%; for `Cc1ccc(C(=O)N2CCC(c3ccc(C#N)cc3)CC2)cc1NC(=O)NCC(C)(C)NC(=O)C(C)C` [Example 263, N-[1-[[5-[4-(4-cyanophenyl)piperidine-1-carbonyl]-2-methyl-phenyl]carbamoylamino]-2-methyl-propan-2-yl]-2-methyl-propanamide], 79%; for `Cc1csc(CNC(=O)Nc2cc(C(=O)N3CCC(c4ccc(C#N)cc4)CC3)ccc2C)n1` [Example 264, 1-[5-[4-(4-cyanophenyl)piperidine-1-carbonyl]-2-methyl-phenyl]-3-[(4-methyl-1,3-thiazol-2-yl)methyl]urea], 90.1%.
On to `Cc1ccc(C(=O)N2CCC(c3ccc(C#N)cc3)CC2)cc1NC(=O)N[C@@H]1CCC(=O)NC1` [Example 265, 1-[5-[4-(4-cyanophenyl)piperidine-1-carbonyl]-2-methyl-phenyl]-3-[(3R)-6-oxo-3-piperidyl]urea], for which the inhibition at 100 µM was determined as 90.6%.
For the compound `Cc1ccc(C(=O)N2CCC(c3ccc(C#N)cc3)CC2)cc1NC(=O)NCc1ccncn1` [Example 266, 1-[5-[4-(4-cyanophenyl)piperidine-1-carbonyl]-2-methyl-phenyl]-3-(pyrimidin-4-ylmethyl)urea], the inhibition at 100 µM turned out to be 103%.
For the compound `Cc1ccc(C(=O)N2CCC(c3ccc(C#N)cc3)CC2)cc1NC(=O)NCc1cn(C)cn1` [Example 267, 1-[5-[4-(4-cyanophenyl)piperidine-1-carbonyl]-2-methyl-phenyl]-3-[(1-methylimidazol-4-yl)methyl]urea], the inhibition at 100 µM turned out to be 90.9%.
Consider `Cc1ccc(C(=O)N2CCC(c3ccc(C#N)cc3)CC2)cc1NC(=O)NCC1CCN(C)C1` (centres unmarked) [Example 268, 1-[5-[4-(4-cyanophenyl)piperidine-1-carbonyl]-2-methyl-phenyl]-3-[(1-methylpyrrolidin-3-yl)methyl]urea], for which the inhibition at 100 µM was 90.1%.
The result for `Cc1ccc(C(=O)N2CCC(c3ccc(C#N)cc3)CC2)cc1NC(=O)NCc1ncco1` [Example 269, 1-[5-[4-(4-cyanophenyl)piperidine-1-carbonyl]-2-methyl-phenyl]-3-(1,3-oxazol-2-ylmethyl)urea] reads 89.9%; that for `Cc1ccc(C(=O)N2CCC(c3ccc(C#N)cc3)CC2)cc1NC(=O)NCCN(C)C(=O)C(C)C` [Example 271, N-[2-[[5-[4-(4-cyanophenyl)piperidine-1-carbonyl]-2-methyl-phenyl]carbamoylamino]ethyl]-N, 2-dimethyl-propanamide], 93.4%; that for `CCS(=O)(=O)N(C)CCNC(=O)Nc1cc(C(=O)N2CCC(c3ccc(C#N)cc3)CC2)ccc1C` [Example 272, 3-[5-[4-(4-cyanophenyl)piperidine-1-carbonyl]-2-methyl-phenyl]-1-[2-(ethylsulfonyl-methyl-amino)ethyl]urea], 93.9%.
For the compound `CC(=O)NCCCNC(=O)Nc1cc(C(=O)N2CCC(c3ccc(C#N)cc3)CC2)ccc1C` [Example 273, N-[3-[[5-[4-(4-cyanophenyl)piperidine-1-carbonyl]-2-methyl-phenyl]carbamoylamino]propyl]acetamide], the inhibition at 100 µM was determined as 87%.
As to `Cc1ccc(C(=O)N2CCC(c3ccc(C#N)cc3)CC2)cc1NC(=O)NCCCNC(=O)C(C)C` [Example 274, N-[3-[[5-[4-(4-cyanophenyl)piperidine-1-carbonyl]-2-methyl-phenyl]carbamoylamino]propyl]-2-methyl-propanamide], the inhibition at 100 µM was 86%.
As for `CC(=O)N1CC[C@@H](NC(=O)Nc2cc(C(=O)N3CCC(c4ccc(C#N)cc4)CC3)ccc2C)C1` [Example 275, 3-[(3R)-1-acetylpyrrolidin-3-yl]-1-[5-[4-(4-cyanophenyl)piperidine-1-carbonyl]-2-methyl-phenyl]urea], the inhibition at 100 µM was 106%.
The result for `CCC(=O)N1CC[C@@H](NC(=O)Nc2cc(C(=O)N3CCC(c4ccc(C#N)cc4)CC3)ccc2C)C1` [Example 276, 3-[5-[4-(4-cyanophenyl)piperidine-1-carbonyl]-2-methyl-phenyl]-1-[(3R)-1-propanoylpyrrolidin-3-yl]urea] reads 98.2%; that for `CC(=O)N1CC[C@H](NC(=O)Nc2cc(C(=O)N3CCC(c4ccc(C#N)cc4)CC3)ccc2C)C1` [Example 277, 3-[(3S)-1-acetylpyrrolidin-3-yl]-1-[5-[4-(4-cyanophenyl)piperidine-1-carbonyl]-2-methyl-phenyl]urea], 96.8%.
For `Cc1ccc(NC(=O)NCCCS(C)(=O)=O)cc1C(=O)N1CCC(c2ccc(C#N)cc2)CC1` [Example 278, 1-[3-[4-(4-cyanophenyl)piperidine-1-carbonyl]-4-methyl-phenyl]-3-(3-methylsulfonylpropyl)urea] the value was 95.8%; for `Cc1ccc(C(=O)N2CCC(c3ccc(C#N)cc3)CC2)cc1NC(=O)NC1CCCN(C(=O)OC(C)(C)C)C1` (centres unmarked) [Example 279, tert-butyl 3-[[5-[4-(4-cyanophenyl)piperidine-1-carbonyl]-2-methyl-phenyl]carbamoylamino]piperidine-1-carboxylate], 99.4%.
With `N#Cc1ccc(C2CCN(C(=O)c3ccc(C(F)(F)F)c(NC(=O)NCc4ccccc4)c3)CC2)cc1` [Example 280, 1-benzyl-3-[5-[4-(4-cyanophenyl)piperidine-1-carbonyl]-2-(trifluoromethyl)phenyl]urea], the inhibition at 100 µM is 90.6%.
`Cc1ccc(C(=O)N2CCC(c3ccc(C#N)cc3)CC2)cc1NC(=O)NC1CCN(S(C)(=O)=O)CC1` [Example 281, 1-[5-[4-(4-cyanophenyl)piperidine-1-carbonyl]-2-methyl-phenyl]-3-(1-methylsulfonyl-4-piperidyl)urea]: the inhibition at 100 µM was determined as 99.7%.
`CC(=O)N1CCC(NC(=O)Nc2cc(C(=O)N3CCC(c4ccc(C#N)cc4)CC3)ccc2C)CC1` [Example 282, 3-(1-acetyl-4-piperidyl)-1-[5-[4-(4-cyanophenyl)piperidine-1-carbonyl]-2-methyl-phenyl]urea]: the inhibition at 100 µM amounted to 95%.

For the origin of these results see patent US20090118332A1, “Therapeutic Agents - 551” (AstraZeneca AB, priority 2006, published 2009).
